Measurements published in patent US20120172361A1, “TRIAZINE DERIVATIVES AND THEIR THERAPEUTICAL APPLICATIONS” (CALIFORNIA CAPITAL EQUITY, LLC, priority 2009, published 2012).

Target: T1, Aurora-A(h) (Homo sapiens, UniProt O14965)
T1 construct: purchased Millipore (KinaseProfiler service); also Reaction Biology Corp. (Kinase Hotspot)
T1 sequence (O14965 1-403): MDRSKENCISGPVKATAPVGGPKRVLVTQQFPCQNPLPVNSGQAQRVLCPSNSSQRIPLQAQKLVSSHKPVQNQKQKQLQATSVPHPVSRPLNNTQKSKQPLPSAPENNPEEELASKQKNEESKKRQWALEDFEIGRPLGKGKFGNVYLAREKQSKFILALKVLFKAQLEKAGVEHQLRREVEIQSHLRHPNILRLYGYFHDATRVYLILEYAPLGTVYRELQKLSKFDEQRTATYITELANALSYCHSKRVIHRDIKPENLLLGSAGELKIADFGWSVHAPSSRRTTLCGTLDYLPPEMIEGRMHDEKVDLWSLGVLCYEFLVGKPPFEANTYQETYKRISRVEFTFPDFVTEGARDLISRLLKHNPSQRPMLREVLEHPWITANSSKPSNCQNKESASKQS
Experiment: Aurora-A kinase assay (KinaseProfiler Service Assay Protocols, Millipore; also Kinase Hotspot, Reaction Biology Corp.)
Assay type: biochemical
Settings: compound concentration 1 μM
Description: This example illustrated Aurora Kinase Assays of selected Compounds from this invention (referred to Daniele Fancelli et al, J. Med. Chem., 2006, 49 (24), pp 7247-7251). The KinaseProfiler™ Service Assay Protocols (Millipore) were used to test the kinase inhibiting activity of novel compounds from this invention. To do this, the buffer composition was as: 20 mM MOPS, 1 mM EDTA, 0.01% Brij-35, 5% Glycerol, 0.1% β-mercaptoethanol, 1 mg/mL BSA. Test compounds were initially dissolved in DMSO at the desired concentration, then serially diluted to the kinase assay buffer. In a final reaction volume of 25 μL, Aurora-A(h) (5-10 mU) is incubated with 8 mM MOPS pH 7.0, 0.2 mM EDTA, 200 μM LRRASLG (Kemptide), 10 mM MgAcetate and [γ33P-ATP]. The reaction was initiated by the addition of the MgATP mix. After incubation for 40 minute at room temperature, the reaction was stopped by addition of 5 μL of a 3% phosphoric acid solution. 10 μL of the reaction was then spotted onto a P30 filtermat and washed three times for 5 minutes in 50 mM phosphoric acid and once in methanol prior to drying and scintillation counting. Wells containing substrate but no kinase and wells containing a phosphopeptide control were used to set 0% and 100% phosphorylation value, respectively.
Also Kinase Hotspot SM kinase assay was used to test the compounds for IC50 or % inhibitions (Reaction Biology Corp.). Inhibitor IC50 values were determined by titration of compound at the optimal kinase concentration (Kinase EC50).

Structure (SMILES) | inhibition at 1 µM [%]
CCN(CC)c1nc(Nc2ncc(C)s2)nc(Sc2ccc(NC(=O)C3CC3)cc2)n1 [Example 42] | > 50
Cc1cc(Nc2nc(Sc3ccc(NC(=O)C4CC4)cc3)nc(N3CCN(c4ccncc4)CC3)n2)n[nH]1 [Example 12] | > 90
Cc1cn(-c2nc(Sc3ccc(NC(=O)C4CC4)cc3)nc(N3CCN(C)CC3)n2)c(=N)s1 [Example 70] | < 50
Cc1nc(Nc2nc(Sc3ccc(NC(=O)C4CC4)cc3)nc(N3CCN(C)CC3)n2)sc1C [Example 61] | < 50
CCCCNc1nc(Nc2ncc(C)s2)nc(Sc2ccc(NC(=O)C3CC3)cc2)n1 [Example 41] | < 50
CC(=O)Nc1ccc(Sc2nc(N3CCN(C)CC3)nc(-n3cc(C)sc3=N)n2)cc1 [Example 67] | < 50
CCc1nc(Nc2ncc(C)s2)nc(N2CCN(C)CC2)n1 [Example 75] | < 50
Cc1cnc(Nc2nc(Sc3ccc(NC(=O)C4CC4)cc3)nc(C3CC3)n2)s1 [Example 59] | > 50
Cc1cnc(Nc2nc(Sc3ccc(NC(=O)C(C)C)cc3)nc(N3CCN(C)CC3)n2)s1 [Example 71] | > 90
CCOC(=O)c1cc(Nc2nc(Sc3ccc(NC(=O)C4CC4)cc3)nc(N3CCN(C)CC3)n2)n[nH]1 [Example 30] | > 90
Cc1cnc(Nc2nc(Sc3ccc(NC(=O)C4CC4)cc3)nc(N3CCOCC3)n2)s1 [Example 21] | > 90
Cc1cnc(Nc2nc(Sc3ccc(NC(=O)C4CC4)cc3)nc(N3CCCCC3)n2)s1 [Example 44] | > 50
CCCc1cc(Nc2nc(Sc3ccc(NC(=O)C4CC4)cc3)nc(N3CCN(C)CC3)n2)n[nH]1 [Example 57] | < 50
Cc1cc(Nc2nc(Sc3ccc(NC(=O)C4CC4)cc3)nc(N3CCN(C)CC3)n2)on1 [Example 76] | > 50
Cc1cnc(Nc2nc(Sc3ccc(N)cc3)nc(N3CCN(C)CC3)n2)s1 [Example 48] | > 50
CC(=O)Nc1ccc(Sc2nc(CC(C)C)nc(-n3cc(C)sc3=N)n2)cc1 [Example 69] | < 50
CC(C)c1cnc(Nc2nc(Sc3ccc(NC(=O)C4CC4)cc3)nc(N3CCN(C)CC3)n2)s1 [Example 52] | > 90
CN1CCN(c2nc(Nc3nc[nH]n3)nc(Sc3ccc(NC(=O)C4CC4)cc3)n2)CC1 [Example 8] | < 50
Cc1cn(-c2nc(Sc3ccc(NC(=O)C(C)C)cc3)nc(N3CCN(C)CC3)n2)c(=N)s1 [Example 66] | < 50

Structure (SMILES) | inhibition at 1 µM [%]
CC(=O)Nc1ccc(Sc2nc(CC(C)C)nc(Nc3ncc(C)s3)n2)cc1 [Example 72] | < 50
Cc1cc(Nc2nc(Sc3ccc(NC(=O)C4CC4)cc3)nc(C3CC3)n2)n[nH]1 [Example 6] | > 90
Cc1cnc(Nc2nc(NCCCN3CCOCC3)nc(Sc3ccc(NC(=O)C4CC4)cc3)n2)s1 [Example 38] | > 90
CC(C)c1cc(Nc2nc(Sc3ccc(NC(=O)C4CC4)cc3)nc(N3CCN(C)CC3)n2)n[nH]1 [Example 56] | > 50
CN1CCN(c2nc(Nc3nncs3)nc(Sc3ccc(NC(=O)C4CC4)cc3)n2)CC1 [Example 11] | < 50
Cc1cc(Nc2nc(Sc3ccc(NC(=O)C4CC4)cc3)nc(N3CCN(C)CC3)n2)n[nH]1 [Example 2] | > 90
Cc1cnc(Nc2nc(NCCN(C)C)nc(Sc3ccc(NC(=O)C4CC4)cc3)n2)s1 [Example 39] | > 90
Cc1cnc(Nc2nc(Sc3ccc(NC(=O)C4CC4)cc3)nc(N3CCN(C)CC3)n2)s1 [Example 10] | > 90
Cc1cnc(Nc2nc(N3CCN(C)CC3)nc(N3CCN(C)CC3)n2)s1 [Example 47] | < 50
Cc1cnc(Nc2nc(Sc3ccc(NC(=O)C4CC4)cc3)nc(N(C)CCN(C)C)n2)s1 [Example 40] | > 50
O=C(Nc1ccc(Sc2nc(Nc3ncc[nH]3)nc(-c3ccccc3)n2)cc1)C1CC1 [Example 16] | < 50
CN1CCN(c2nc(Nc3cc(C4CC4)[nH]n3)nc(Sc3ccc(NC(=O)C4CC4)cc3)n2)CC1 [Example 53] | > 90
CCc1nc(Nc2cc(C)[nH]n2)nc(N2CCN(c3ccncc3)CC2)n1 [Example 13] | > 50
CN1CCN(c2nc(Nc3nc4ccccc4[nH]3)nc(Sc3ccc(NC(=O)C4CC4)cc3)n2)CC1 [Example 9] | > 50
CCc1nc(Nc2cc(C)[nH]n2)nc(Sc2ccc(NC(=O)C3CC3)cc2)n1 [Example 4] | > 90
Cc1cnc(Nc2nc(Sc3ccc(NC(=O)C4CC4)cc3)nc(N3CCN(CCO)CC3)n2)s1 [Example 19] | > 90
Cc1csc(Nc2nc(Sc3ccc(NC(=O)C4CC4)cc3)nc(N3CCN(C)CC3)n2)n1 [Example 64] | < 50
CC(=O)Nc1ccc(Sc2nc(Nc3ncc(C)s3)nc(N3CCN(C)CC3)n2)cc1 [Example 73] | > 90

More lines, now with the values ahead:

inhibition at 1 µM [%] | Structure (SMILES)
> 50 | Cc1ccc(Nc2nc(Sc3ccc(NC(=O)C4CC4)cc3)nc(N3CCN(C)CC3)n2)nc1 [Example 122]
> 50 | Cc1cc(Nc2nc(Sc3ccc(C(=O)NC4CC4)cc3)nc(N3CCN(C)CC3)n2)n[nH]1 [Example 106]
> 90 | CCC(=O)Nc1ccc(Sc2nc(Nc3cc(C)[nH]n3)nc(C3CC3)n2)cc1 [Example 82]
> 50 | Cc1cc(Nc2nc(Sc3ccc(NC(=O)C4CC4)cc3)nc(N(C)CCN(C)C)n2)n[nH]1 [Example 92]
> 90 | Cc1cc(Nc2nc(Sc3ccc(NC(=O)C4CC4)cc3)nc(N(C)C)n2)n[nH]1 [Example 127]
> 50 | CN1CCN(c2nc(Nc3ccc(Br)cn3)nc(Sc3ccc(NC(=O)C4CC4)cc3)n2)CC1 [Example 123]
> 90 | Cc1cc(Nc2nc(NCCCN3CCOCC3)nc(Sc3ccc(NC(=O)C4CC4)cc3)n2)n[nH]1 [Example 90]
> 90 | CCCCNc1nc(Nc2cc(C)[nH]n2)nc(Sc2ccc(NC(=O)C3CC3)cc2)n1 [Example 93]
> 90 | CC(C)C(=O)Nc1ccc(Sc2nc(Nc3cc(C4CC4)[nH]n3)nc(C3CC3)n2)cc1 [Example 79]
> 90 | CCC(=O)Nc1ccc(Sc2nc(C)nc(Nc3cc(C)[nH]n3)n2)cc1 [Example 86]
< 50 | CCC(=O)Nc1ccc(Sc2nc(N3CCN(C)CC3)nc(-n3cc(C)sc3=N)n2)cc1 [Example 109]
< 50 | CCc1nc(Nc2cc(C)[nH]n2)nc(N2CCN(C)CC2)n1 [Example 103]
> 90 | Cc1cc(Nc2nc(Sc3ccc(C(=O)Nc4ccccc4)cc3)nc(N3CCN(C)CC3)n2)n[nH]1 [Example 116]
> 90 | Cc1cc(Nc2nc(Sc3ccc(C(=O)NC(C)C)cc3)nc(N3CCN(C)CC3)n2)n[nH]1 [Example 115]
> 90 | CCC(=O)Nc1ccc(Sc2nc(C)nc(Nc3cc(C4CC4)[nH]n3)n2)cc1 [Example 87]
> 50 | Cc1cn(-c2nc(Sc3ccc(NC(=O)c4ccccc4)cc3)nc(N3CCN(C)CC3)n2)c(=N)s1 [Example 112]
< 50 | Cc1cc(Nc2nc(Sc3ccc(NC(=O)C4CC4)cc3)nc(N3CCN(C)CC3)n2)no1 [Example 120]
< 50 | Cc1nnc(Nc2nc(Sc3ccc(NC(=O)C4CC4)cc3)nc(N3CCN(C)CC3)n2)s1 [Example 77]
> 90 | Cc1cc(Nc2nc(Sc3ccc(NC(=O)C4CC4)cc3)nc(N3CCN(CCO)CC3)n2)n[nH]1 [Example 96]
> 90 | CCC(=O)Nc1ccc(Sc2nc(Nc3ncc(C)s3)nc(N3CCN(C)CC3)n2)cc1 [Example 114]
> 90 | Cc1cc(Nc2nc(Sc3ccc(NC(=O)C4CC4)cc3)nc(N3CCOCC3)n2)n[nH]1 [Example 88]
> 90 | CCC(=O)Nc1ccc(Sc2nc(Nc3cc(C4CC4)[nH]n3)nc(C3CC3)n2)cc1 [Example 81]
< 50 | Cc1ccnc(Nc2nc(Sc3ccc(NC(=O)C4CC4)cc3)nc(N3CCN(C)CC3)n2)n1 [Example 121]
> 90 | Cc1cnc(Nc2nc(Sc3ccc(NC(=O)c4ccccc4)cc3)nc(N3CCN(C)CC3)n2)s1 [Example 113]
> 50 | CCC(=O)Nc1ccc(Sc2nc(C3CC3)nc(-n3cc(C)sc3=N)n2)cc1 [Example 110]
> 90 | Cc1cc(Nc2nc(NCCN(C)C)nc(Sc3ccc(NC(=O)C4CC4)cc3)n2)n[nH]1 [Example 91]
< 50 | Cc1cc(Nc2nc(Sc3ccc(NC(=O)C4CC4)cc3)nc(N3CCN(C)CC3)n2)sn1 [Example 78]
